Reference: patent US20080103205A1, “Pesticidal compositions and methods of use” (priority 2006, published 2008)

Key:
[1] = test system: European corn borer (Ostrinia nubilalis); assay: Diet surface test on European corn borer larvae (2nd instar); assay type: in vivo; conditions: for No. dead: 10 larvae
Outline: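 Late 2nd-instar larvae, one per cup, on diet surface-treated with 6.25, 12.5, 25 or 50 ppm in 95% EtOH (solvent evaporated), 2×10 cups per dose, 25±1° C, 70±5% RH. Weight and mortality at 7 days, then transfer to untreated diet; weight at day 21 and days to pupation.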

[2] = test system: Meloidogyne incognita eggs; assay: M. incognita egg hatching; assay type: in vivo
Outline: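 Eggs collected from tomato roots (115–143 per well) were exposed to 2, 5, 10, 20 or 40 ppm compound from DMSO stocks, with 0.2% DMSO controls and 5 replicates, at room temperature. Hatch was scored at 24, 72, 120 and 168 hr as juveniles/total eggs, also normalized to control.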

With `O=C(O)c1cc([N+](=O)[O-])ccc1NCCCc1ccccc1` [NPPB, 5-Nitro-2-(3-phenylpropylamino)benzoic acid] the No. dead ([1]; 6.25 ppm, 7 days after feeding) was 0, the No. dead ([1]; 6.25 ppm, 21 days after feeding) was 0 and the No. dead ([1]; 12.5 ppm, 7 days after feeding) was 0. It also gave a No. dead ([1]; 12.5 ppm, 21 days after feeding) of 0, a No. dead ([1]; 25 ppm, 21 days after feeding) of 2 and a Days for pupation ([1]; 50 ppm) of 0 days. The No. dead ([1]; 50 ppm, 7 days after feeding) was 8, the “% wt reduction to control” value ([1]; 50 ppm, 21 days after feeding) was 0% and the “Mean wt of survived larvae, mg” value ([1]; 50 ppm, 21 days after feeding) was 0 mg. It also gave a No. dead ([1]; 50 ppm, 21 days after feeding) of 10, a mortality at 6.25 ppm ([1]; Ostrinia nubilalis, 168 h, 6.25 ppm, 7 days after feeding) of 0% and a mortality at 12.5 ppm ([1]; Ostrinia nubilalis, 168 h, 12.5 ppm, 7 days after feeding) of 0%. The mortality at 50 ppm ([1]; Ostrinia nubilalis, 168 h, 50 ppm, 7 days after feeding) was 80%, the mortality at 6.25 ppm ([1]; Ostrinia nubilalis, 504 h, 6.25 ppm, 21 days after feeding) was 0% and the mortality at 12.5 ppm ([1]; Ostrinia nubilalis, 504 h, 12.5 ppm, 21 days after feeding) was 0%. For the same compound, the mortality at 25 ppm ([1]; Ostrinia nubilalis, 504 h, 25 ppm, 21 days after feeding) was 20%, the mortality at 50 ppm ([1]; Ostrinia nubilalis, 504 h, 50 ppm, 21 days after feeding) was 100% and the “Eggs Hatched %” value ([2]; 2 ppm, 24 hr) was 10%. For the same compound, the “Eggs Hatched % C* (% hatch, normalized to control)” value ([2]; 2 ppm, 24 hr) was 100%, the “Eggs Hatched No.” value ([2]; 2 ppm, 24 hr) was 61 and the “Eggs Hatched %” value ([2]; 2 ppm, 72 hr) was 14%. The “Eggs Hatched % C* (% hatch, normalized to control)” value ([2]; 2 ppm, 72 hr) was 87%, the “Eggs Hatched No.” value ([2]; 2 ppm, 72 hr) was 92 and the “Eggs Hatched %” value ([2]; 2 ppm, 120 hr) was 19%. The “Eggs Hatched % C* (% hatch, normalized to control)” value ([2]; 2 ppm, 120 hr) was 86%, the “Eggs Hatched No.” value ([2]; 2 ppm, 120 hr) was 127 and the “Eggs Hatched %” value ([2]; 2 ppm, 168 hr) was 23%. For the same compound, the “Eggs Hatched % C* (% hatch, normalized to control)” value ([2]; 2 ppm, 168 hr) was 83%, the “Eggs Hatched No.” value ([2]; 2 ppm, 168 hr) was 155 and the “Eggs Hatched %” value ([2]; 5 ppm, 24 hr) was 10%. For the same compound, the “Eggs Hatched % C* (% hatch, normalized to control)” value ([2]; 5 ppm, 24 hr) was 100%, the “Eggs Hatched No.” value ([2]; 5 ppm, 24 hr) was 58 and the “Eggs Hatched %” value ([2]; 5 ppm, 72 hr) was 14%. For the same compound, the “Eggs Hatched % C* (% hatch, normalized to control)” value ([2]; 5 ppm, 72 hr) was 87%, the “Eggs Hatched No.” value ([2]; 5 ppm, 72 hr) was 86 and the “Eggs Hatched %” value ([2]; 5 ppm, 120 hr) was 18%. For the same compound, the “Eggs Hatched % C* (% hatch, normalized to control)” value ([2]; 5 ppm, 120 hr) was 82%, the “Eggs Hatched No.” value ([2]; 5 ppm, 120 hr) was 118 and the “Eggs Hatched %” value ([2]; 5 ppm, 168 hr) was 22%. For the same compound, the “Eggs Hatched % C* (% hatch, normalized to control)” value ([2]; 5 ppm, 168 hr) was 79%, the “Eggs Hatched No.” value ([2]; 5 ppm, 168 hr) was 149 and the “Eggs Hatched %” value ([2]; 10 ppm, 24 hr) was 9%. For the same compound, the “Eggs Hatched % C* (% hatch, normalized to control)” value ([2]; 10 ppm, 24 hr) was 90%, the “Eggs Hatched No.” value ([2]; 10 ppm, 24 hr) was 58 and the “Eggs Hatched %” value ([2]; 10 ppm, 72 hr) was 12%. The “Eggs Hatched % C* (% hatch, normalized to control)” value ([2]; 10 ppm, 72 hr) was 75%, the “Eggs Hatched No.” value ([2]; 10 ppm, 72 hr) was 82 and the “Eggs Hatched %” value ([2]; 10 ppm, 120 hr) was 16%. The “Eggs Hatched % C* (% hatch, normalized to control)” value ([2]; 10 ppm, 120 hr) was 72%, the “Eggs Hatched No.” value ([2]; 10 ppm, 120 hr) was 105 and the “Eggs Hatched %” value ([2]; 10 ppm, 168 hr) was 20%. For the same compound, the “Eggs Hatched % C* (% hatch, normalized to control)” value ([2]; 10 ppm, 168 hr) was 71%, the “Eggs Hatched No.” value ([2]; 10 ppm, 168 hr) was 129 and the “Eggs Hatched %” value ([2]; 20 ppm, 24 hr) was 9%. For the same compound, the “Eggs Hatched % C* (% hatch, normalized to control)” value ([2]; 20 ppm, 24 hr) was 90%, the “Eggs Hatched No.” value ([2]; 20 ppm, 24 hr) was 52 and the “Eggs Hatched %” value ([2]; 20 ppm, 72 hr) was 11%. The “Eggs Hatched % C* (% hatch, normalized to control)” value ([2]; 20 ppm, 72 hr) was 69%, the “Eggs Hatched No.” value ([2]; 20 ppm, 72 hr) was 67 and the “Eggs Hatched %” value ([2]; 20 ppm, 120 hr) was 14%. For the same compound, the “Eggs Hatched % C* (% hatch, normalized to control)” value ([2]; 20 ppm, 120 hr) was 64%, the “Eggs Hatched No.” value ([2]; 20 ppm, 120 hr) was 85 and the “Eggs Hatched %” value ([2]; 20 ppm, 168 hr) was 17%. For the same compound, the “Eggs Hatched % C* (% hatch, normalized to control)” value ([2]; 20 ppm, 168 hr) was 61%, the “Eggs Hatched No.” value ([2]; 20 ppm, 168 hr) was 106 and the “Eggs Hatched %” value ([2]; 40 ppm, 24 hr) was 8%. The “Eggs Hatched % C* (% hatch, normalized to control)” value ([2]; 40 ppm, 24 hr) was 80%, the “Eggs Hatched No.” value ([2]; 40 ppm, 24 hr) was 47 and the “Eggs Hatched %” value ([2]; 40 ppm, 72 hr) was 11%. The “Eggs Hatched % C* (% hatch, normalized to control)” value ([2]; 40 ppm, 72 hr) was 69%, the “Eggs Hatched No.” value ([2]; 40 ppm, 72 hr) was 61 and the “Eggs Hatched %” value ([2]; 40 ppm, 120 hr) was 11%. For the same compound, the “Eggs Hatched % C* (% hatch, normalized to control)” value ([2]; 40 ppm, 120 hr) was 50%, the “Eggs Hatched No.” value ([2]; 40 ppm, 120 hr) was 74 and the “Eggs Hatched %” value ([2]; 40 ppm, 168 hr) was 12%. The “Eggs Hatched % C* (% hatch, normalized to control)” value ([2]; 40 ppm, 168 hr) was 43% and the “Eggs Hatched No.” value ([2]; 40 ppm, 168 hr) was 82.
